Data taken from ChEMBL document CHEMBL4402608 (J Med Chem, 2020).

Assays:
D(3) dopamine receptor [1] = target: T1, D(3) dopamine receptor (Homo sapiens, UniProt P35462); assay: Agonist activity at human D3R expressed in CHOK1 cells assessed as induction of beta-arrestin recruitment measured after 90 mins by beta-galactosidase based PathHunter assay; assay type: cell-based
D(2) dopamine receptor [2] = target: T2, D(2) dopamine receptor (Homo sapiens, UniProt P14416); assay: Agonist activity at human D2R expressed in CHOK1 cells assessed as induction of beta-arrestin recruitment measured after 90 mins by beta-galactosidase based PathHunter assay; assay type: cell-based
T2 sequence (P14416 whole entry): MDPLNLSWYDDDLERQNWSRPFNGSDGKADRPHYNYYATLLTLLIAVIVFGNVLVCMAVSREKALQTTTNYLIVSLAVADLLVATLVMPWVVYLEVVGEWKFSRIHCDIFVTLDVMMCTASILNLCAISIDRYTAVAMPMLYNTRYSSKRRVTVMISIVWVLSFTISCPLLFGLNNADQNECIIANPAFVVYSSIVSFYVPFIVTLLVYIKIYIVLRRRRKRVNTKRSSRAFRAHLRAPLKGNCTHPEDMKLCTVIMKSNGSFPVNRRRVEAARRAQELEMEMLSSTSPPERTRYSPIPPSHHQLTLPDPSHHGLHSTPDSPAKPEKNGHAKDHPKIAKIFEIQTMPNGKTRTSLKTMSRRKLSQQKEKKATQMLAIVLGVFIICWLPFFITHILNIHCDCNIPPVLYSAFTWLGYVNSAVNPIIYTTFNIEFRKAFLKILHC

D(2) dopamine receptor [3] = target: T2, D(2) dopamine receptor; assay: Antagonist activity at human D2R expressed in CHOK1 cells assessed as inhibition of dopamine-induced beta-arrestin recruitment measured after 120 mins by beta-galactosidase based PathHunter assay; assay type: cell-based
D(2) dopamine receptor [4] = target: T2, D(2) dopamine receptor; assay: Antagonist activity at human D2R expressed in CHOK1 cells assessed as inhibition of dopamine-induced beta-arrestin recruitment measured after 120 mins by beta-galactosidase based PathHunter assay relative to sulpiride; assay type: cell-based; settings: 2 h, read-out: Imax
D(2) dopamine receptor [5] = target: T2, D(2) dopamine receptor
D(3) dopamine receptor [6] = target: T1, D(3) dopamine receptor; assay: biochemical
[7] = target: 5-hydroxytryptamine receptor 2B (Homo sapiens, UniProt P41595); assay: Antagonist activity at recombinant human 5-HT2B receptor expressed in CHOK1 cells assessed as inhibition of serotonin-induced increase in inositol1-phosphate accumulation measured after 30 mins by HTRF assay; assay type: functional, cell-based
Chain of 5-hydroxytryptamine receptor 2B (P41595 whole entry): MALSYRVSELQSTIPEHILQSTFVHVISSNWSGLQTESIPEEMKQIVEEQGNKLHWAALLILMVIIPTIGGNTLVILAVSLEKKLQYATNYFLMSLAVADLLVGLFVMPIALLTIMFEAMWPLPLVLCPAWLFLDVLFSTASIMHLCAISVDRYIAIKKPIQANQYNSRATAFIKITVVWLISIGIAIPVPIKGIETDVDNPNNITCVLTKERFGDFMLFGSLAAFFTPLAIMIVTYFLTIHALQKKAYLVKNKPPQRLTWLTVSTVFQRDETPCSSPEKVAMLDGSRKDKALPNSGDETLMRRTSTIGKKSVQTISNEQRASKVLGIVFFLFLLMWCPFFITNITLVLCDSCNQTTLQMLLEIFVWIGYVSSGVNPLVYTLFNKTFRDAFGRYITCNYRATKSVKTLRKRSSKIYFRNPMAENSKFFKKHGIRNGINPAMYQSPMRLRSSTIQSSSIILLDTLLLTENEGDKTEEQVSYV

T1 sequence (P35462 whole entry): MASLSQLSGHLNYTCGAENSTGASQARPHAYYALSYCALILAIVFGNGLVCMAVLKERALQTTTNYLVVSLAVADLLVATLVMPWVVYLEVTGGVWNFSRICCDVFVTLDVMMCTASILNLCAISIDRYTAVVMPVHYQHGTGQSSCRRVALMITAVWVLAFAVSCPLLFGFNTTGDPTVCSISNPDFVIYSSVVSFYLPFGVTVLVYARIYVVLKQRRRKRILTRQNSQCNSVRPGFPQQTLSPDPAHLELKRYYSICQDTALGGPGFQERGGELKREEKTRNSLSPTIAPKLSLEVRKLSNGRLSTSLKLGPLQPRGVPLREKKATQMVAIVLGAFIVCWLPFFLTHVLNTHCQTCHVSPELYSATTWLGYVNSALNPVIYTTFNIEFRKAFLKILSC

EC50 (D(3) dopamine receptor [1]; read-out: EC50) | EC50 (D(2) dopamine receptor [2]; read-out: EC50) | IC50 (D(2) dopamine receptor [3]; read-out: IC50) | Emax (D(2) dopamine receptor [4]) | EC50 (D(2) dopamine receptor [2]) | SMILES | also measured
280 nM | 830 nM | 7400 nM | 30% | – | COc1cccc(OCCN2CCN(C(=O)c3cc4cnccc4[nH]3)CC2)c1 | –
530 nM | – | 6000 nM | 106% | Not Active | CCc1ccc(C(=O)N2CCN(CCOc3ccc(OC)cc3)CC2)cc1 | –
9.2 nM | 1800 nM | 535 nM | 37% | – | O=C(c1cc2ccccc2[nH]1)N1CCN(CCOc2ccccc2)CC1 | –
610 nM | – | 13000 nM | 88% | Not Active | Cc1ccc(OCCN2CCN(C(=O)c3cc4ccccc4[nH]3)CC2)cc1C | –
126 nM | > 50000 nM | 9700 nM | 72% | – | O=C(c1cc2ccccc2[nH]1)N1CCN(CCOc2ccc(F)cc2)CC1 | –
– | – | 7700 nM | 111% | Not Active | COc1ccc(OCCN2CCN(C(=O)c3cc4ccccc4o3)CC2)cc1 | –
– | – | 18000 nM | 89% | Not Active | COc1ccc(OC(C)CN2CCN(C(=O)c3ccc(OC)cc3)CC2)cc1 (stereo not given) | –
– | – | 9000 nM | 107% | Not Active | COc1ccc(OCCN2CCN(C(=O)c3ccc(Cl)cc3)CC2)cc1 | EC50 (D(3) dopamine receptor [1]): Not Active
611 nM | > 50000 nM | > 100000 nM | – | – | COc1ccc(OCCN2CCN(C(=O)c3cc4cc(C)ccc4[nH]3)CC2)cc1 | –
130 nM | 1100 nM | – | – | – | COc1ccc(OCCN2CCN(C(=O)c3cc4ccc(C)cc4[nH]3)CC2)cc1 | IC50 (D(2) dopamine receptor [3]): Not Active
2600 nM | – | > 50000 nM | – | Not Active | CCc1ccc(OCCN2CCN(C(=O)c3ccc(OC)cc3)CC2)cc1 | –
4400 nM | – | > 100000 nM | – | Not Active | COc1ccc(OCCN2CCN(C(=O)c3ccc(OC)cc3)CC2C)cc1 (stereo not given) | –
2500 nM | – | > 100000 nM | – | Not Active | COc1ccc(OCCN2CCN(C(=O)c3ccccc3OC)CC2)cc1 | –
160 nM | 7100 nM | > 100000 nM | – | – | COc1ccc(OCCN2CCN(C(=O)c3cc4c(Cl)cccc4[nH]3)CC2)cc1 | –
997 nM | – | – | – | Not Active | Cc1ccc(OCCN2CCN(C(=O)c3cc4ccccc4[nH]3)CC2)cc1Cl | IC50 (D(2) dopamine receptor [3]): Not Active
710 nM | – | – | 88% | Not Active | COc1ccc(OCCN2CCN(C(=O)c3ccc(OC)cc3)CC2)cc1 | IC50 (D(2) dopamine receptor [5]): > 100000 nM; IC50 (D(3) dopamine receptor [6]): 10000 to 100000 nM
– | – | > 10000 nM | 101% | Not Active | COc1ccc(C(=O)N2CCN(CCOc3ccc(Cl)cc3)CC2)cc1 | –
473 nM | 10100 nM | > 100000 nM | – | – | COc1ccc(OCCN2CCN(C(=O)c3cc4cccc(C)c4[nH]3)CC2)cc1 | –
– | – | > 50000 nM | – | Not Active | COc1ccc(C(=O)N2CCN(CCOc3ccc(OC(F)(F)F)cc3)CC2)cc1 | EC50 (D(3) dopamine receptor [1]): Not Active
– | – | > 50000 nM | – | Not Active | COc1ccc(OCCN2CCN(c3ccc(OC)cc3)CC2)cc1 | EC50 (D(3) dopamine receptor [1]): Not Active
– | – | – | – | – | Cn1ccc2cc3c(cc21)CCN3C(=O)Nc1cccnc1 | EC50 [7]: 13 nM
116 nM | 4600 nM | > 100000 nM | – | – | COc1ccc(C(=O)N2CCN(CCOc3cccnc3)CC2)c(C)c1 | –

SMILES | EC50 (D(3) dopamine receptor [1]; read-out: EC50) | EC50 (D(2) dopamine receptor [2]; read-out: EC50) | IC50 (D(2) dopamine receptor [3]; read-out: IC50) | Emax (D(2) dopamine receptor [4]) | EC50 (D(2) dopamine receptor [2]) | also measured
COc1ccc(OCCN2CCN(C(=O)c3cc4ccccc4n3C)CC2)cc1 | 310 nM | – | 9600 nM | 105% | Not Active | –
COc1ccc(C(=O)N2CCN(CCOc3ccc4c(c3)OCO4)CC2)cc1 | 310 nM | – | > 10000 nM | 87% | Not Active | –
